Target: T1, Etr1p (Candida tropicalis, UniProt Q8WZM3)
T1 sequence (Q8WZM3 23-386): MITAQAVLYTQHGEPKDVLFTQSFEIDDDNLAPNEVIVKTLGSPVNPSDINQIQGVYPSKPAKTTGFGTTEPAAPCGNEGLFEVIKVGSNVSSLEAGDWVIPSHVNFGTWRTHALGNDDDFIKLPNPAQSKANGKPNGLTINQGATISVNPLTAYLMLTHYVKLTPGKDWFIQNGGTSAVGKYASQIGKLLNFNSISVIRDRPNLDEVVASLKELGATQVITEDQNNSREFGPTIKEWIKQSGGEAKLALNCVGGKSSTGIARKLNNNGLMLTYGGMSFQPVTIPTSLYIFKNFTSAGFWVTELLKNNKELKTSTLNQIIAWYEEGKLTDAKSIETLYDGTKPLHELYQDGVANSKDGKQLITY
Test: isothermal titration calorimetry
Type: binding
Details: 150 mM NaCl, 20 mM Tris-HCl pH 7.9; association constant

binding constant: 3.8 ± 1.0 ·10^5
Compound: NC(=O)C1=CN([C@@H]2O[C@H](COP(=O)(O)OP(=O)(O)OC[C@H]3O[C@@H](n4cnc5c(N)ncnc54)[C@H](OP(=O)(O)O)[C@@H]3O)[C@@H](O)[C@H]2O)C=CC1 [NADPH]

Source: paper PMC5892710 (Nature chemical biology, 2017)
